This passage reports IC50 results from ChEMBL document CHEMBL5726504, “Substituted cyclopentanes, tetrahydrofuranes and pyrrolidines as orexin receptor antagonists” (2017).

SMILES strings stand for the structures.

The target in this experiment is T1, Orexin/Hypocretin receptor type 1 (Homo sapiens, UniProt O43613).
T1 sequence (O43613 whole entry): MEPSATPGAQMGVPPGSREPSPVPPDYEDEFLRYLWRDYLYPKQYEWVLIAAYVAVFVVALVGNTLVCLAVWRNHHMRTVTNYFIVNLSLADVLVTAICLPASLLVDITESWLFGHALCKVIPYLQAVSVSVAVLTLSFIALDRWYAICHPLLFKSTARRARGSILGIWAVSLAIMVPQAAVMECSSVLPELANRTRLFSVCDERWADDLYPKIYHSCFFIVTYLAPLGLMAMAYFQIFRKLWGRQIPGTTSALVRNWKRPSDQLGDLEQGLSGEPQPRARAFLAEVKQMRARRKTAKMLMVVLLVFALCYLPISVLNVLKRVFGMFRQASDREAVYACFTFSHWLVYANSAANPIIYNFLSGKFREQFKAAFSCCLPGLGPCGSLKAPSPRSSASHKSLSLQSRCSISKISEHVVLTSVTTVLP
Briefly: FLIPR Assay: Orexin antagonist activity was determined by measuring changes in intracellular calcium levels using a Ca2+ sensitive fluorescent dye. The changes in fluorescent signal were monitored by Fluorescent Imaging Plate Reader (FLIPR) technology available from Molecular Devices, LLC, U.S.A. Orexin mediated increases in intracellular Ca2+ concentration were readily detected upon activation with orexin-A. Twenty-four hours prior to the assay, RBL-2H3 cells stably expressing either human orexin receptor 1 or human orexin receptor 2 were seeded in cell culture medium in black, clear-bottom 384-well plates (commercially available from Corning Inc., U.S.A.) and grown overnight at 37° C., 5% CO2. On the day of the assay, cell culture media was removed and cells were loaded with Calcium 5 Dye (commercially sold by Molecular Devices, LLC, U.S.A.) for 1 hour at 37° C., 5% CO2. Test compounds (at 10 point half log concentration response curves from 10 uM) were added to cells for 15 minutes prior to the addition of orexin-A to all wells, to achieve a final concentration that produces approximately an 80% maximal response. The format is cell-based.

For `COc1ccc(Br)nc1C(=O)N[C@H]1CCC[C@@H]1Nc1nc2ccc(F)cc2s1`, the IC50 was found to be 128 nM.
